Data taken from article PMC8605905 (Oxidative Medicine and Cellular Longevity, 2021).

Assays:
[1] = tested on: ∆K280 tauRD-DsRed SH-SY5Y cells; experiment: Real-time PCR of tauRD-DsRed RNA; type: cell-based, Human; details: 10 μM
Description: (§1) To measure the Aβ-GFP/tauRD-DsRed RNA expression on day 8, total RNA was extracted from collected cells and reverse-transcribed to cDNA (SuperScript III reverse transcriptase; Invitrogen, Waltham, MA, USA). Real-time quantitative PCR was performed using 100 ng of cDNA and the gene-specific TaqMan fluorogenic probe PN4331348 (EGFP) or customized Assays-by-Design probe for DsRed and 4326321E (HPRT1) (StepOnePlus Real-time PCR system, Applied Biosystems, Foster City, CA, USA). The RNA expression level was calculated using the formula 2^ΔCt, ΔCT = CT (control) − CT (target), in which CT indicates the cycle threshold.

[2] = tested on: caspase 1; experiment: Caspase 1 activity in Aβ-GFP cells; type: cell-based, Human; details: 5 μM, vs untreated cells
Description: Aβ-GFP or ∆K280 tauRD-DsRed SH-SY5Y cells were seeded into 6-well plates (5 × 10^5/well) and treated with retinoic acid, coumarin-chalcone derivatives, and doxycycline as previously described. On day 8, cells were collected and lysates were prepared with six freeze/thaw cycles. The supernatant was collected by centrifugation, followed by measurement of the caspase 1 activity in 50 μg aliquots of cell extract using the ICE fluorometric assay kit (BioVision, Milpitas, CA, USA). Following incubation of the mixture at 37°C for 2 h, fluorescence was measured with excitation/emission wavelengths at 400/505 nm (FLx800 fluorescence microplate reader). In addition, the collected cells were lysed by sonication. Acetylcholinesterase (AChE) activity in the supernatant was determined in 10 μg aliquots of cell extracts using the AChE activity assay kit (Sigma-Aldrich) according to the manufacture's protocol. Finally, the absorbance at 412 nm was measured using a Multiskan GO spectrophotometer (Thermo Fisher Scientific).

[3] = tested on: Aβ-GFP SH-SY5Y cells; experiment: High content analysis of Aβ-GFP fluorescence; type: cell-based, Human
Description: (§2) Human neuroblastoma SH-SY5Y-derived Aβ-GFP [23] and ∆K280 tauRD-DsRed cells were kept in DMEM/nutrient mixture F12 (DMEM/F12) containing 10% FBS, 5 μg/ml blasticidin, and 100 μg/ml hygromycin (InvivoGen, San Diego, CA, USA). Doxycycline (Sigma-Aldrich) was applied to induce the expression of Aβ-GFP (5 μg/ml doxycycline) or ∆K280 tauRD-DsRed (2 μg/ml doxycycline).
On day 1, Aβ-GFP or ∆K280 tauRD-DsRed SH-SY5Y cells were seeded into 96-well plates (2.5 × 10^4/well) and treated with retinoic acid (10 μM; Sigma-Aldrich) to prompt neuronal differentiation. […] Image Acquisition and Analysis Software (MetaXpress) (Molecular Devices, Sunnyvale, CA, USA) was used to analyse the images. CellROX Orange (5 μM; Molecular Probes, Eugene, OR, USA) (for Aβ-GFP cells) or dichloro-dihydro-fluorescein diacetate (DCFH-DA, 10 μM; Invitrogen) (for ∆K280 tauRD-DsRed cells) was added to the cells and incubated at 37°C for 30 min.

[4] = tested on: ∆K280 tauRD-DsRed SH-SY5Y cells; experiment: High content analysis of ΔK280 tauRD-DsRed fluorescence; type: cell-based, Human; details: tested 2.5–10 μM
Description: as §2, with “Human 293-derived Flp-In-293 cells (Invitrogen, Madison, WI, USA) were cultivated in Dulbecco's modified Eagle's medium (DMEM) containing 10% foetal bovine serum (FBS) (Thermo Fisher Scientific). Human” for “Human”
(§3) On day 1, Aβ-GFP or ∆K280 tauRD-DsRed SH-SY5Y cells were seeded into 96-well plates (2.5 × 10^4/well) and treated with retinoic acid (10 μM; Sigma-Aldrich) to prompt neuronal differentiation. […] On day 8, cells were stained with Hoechst 33342 (0.1 μg/ml; Sigma-Aldrich) for 30 min, and cell images were automatically captured at excitation/emission wavelengths of 482/[…] (GFP fluorescence) or 543/593 nm (DsRed fluorescence) using a high content analysis (HCA) system (Micro Confocal High-Content Imaging System). Image Acquisition and Analysis Software (MetaXpress) (Molecular Devices, Sunnyvale, CA, USA) was used to analyse the images. CellROX Orange (5 μM; Molecular Probes, Eugene, OR, USA) (for Aβ-GFP cells) or dichloro-dihydro-fluorescein diacetate (DCFH-DA, 10 μM; Invitrogen) (for ∆K280 tauRD-DsRed cells) was added to the cells and incubated at 37°C for 30 min. The HCA system was used to measure intracellular ROS at 531/593 nm (CellROX Orange fluorescence) or 482/536 nm (DCFH-DA fluorescence) of excitation/emission wavelengths.

[5] = tested on: Aβ-GFP SH-SY5Y cells; experiment: ROS assay (CellROX Orange) in Aβ-GFP cells; type: cell-based, Human; details: tested 1.2–5 μM
Description: as §3

[6] = molecular target: T1, Aβ42 peptide (Homo sapiens, UniProt P05067); experiment: Thioflavin T assay of Aβ aggregation; type: biochemical; details: Aβ42 5 μM, compound 5–20 μM, 37°C 48 h; read-out: Aβ aggregation inhibition EC50 (Thioflavin T)
T1 construct: containing Aβ42 peptide (5 μM); purchased AnaSpec; host or cells: synthetic
T1 sequence (P05067 672-713 limits assumed): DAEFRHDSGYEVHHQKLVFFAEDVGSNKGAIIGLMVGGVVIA
Description: In brief, the tested compound (5–20 μM) was added to a buffer solution (150 mM NaCl, 20 mM Tris-HCl (pH 8.0)) containing Aβ42 peptide (5 μM) and incubated at 37°C for 48 h. Thioflavin T (10 μM) (Sigma-Aldrich) then was added, and the mixture was incubated for 5 min at room temperature. Subsequently, the fluorescence intensity was quantified at 420/485 nm of excitation/emission wavelengths using a FLx800 microplate reader (Bio-Tek, Winooski, VT, USA). EC50 was computed as described.

[7] = tested on: ∆K280 tauRD-DsRed SH-SY5Y cells; experiment: ROS assay (DCFH-DA) in ΔK280 tauRD-DsRed cells; type: cell-based, Human; details: 10 μM
Description: as §3

[8] = tested on: Aβ-GFP SH-SY5Y cells; experiment: Real-time PCR of Aβ-GFP RNA; type: cell-based, Human; details: 5 μM
Description: as §1

## CN(C)c1ccc(/C=C/C(=O)c2c(O)c3ccccc3oc2=O)cc1 [LM-021, (E)-3-(3-(4-(dimethylamino)phenyl)acryloyl)-4-hydroxy-2H-chromen-2-one]
[1]
  ∆K280 tauRD-DsRed RNA level: did not significantly alter
[2]
  Caspase 1 activity: reduced
[3]; Aβ-GFP and ΔK280 tauRD-DsRed SH-SY5Y cells (Figures 3 and 4)
  Toxicity in SH-SY5Y cells: low toxicity
[3]; Homo sapiens, Aβ-GFP SH-SY5Y cells, tested 1.2–5 μM, read-out: EC50 in Aβ aggregation inhibition (GFP fluorescence)
  EC50: 5.1 µM
[3]; tested 1.2–5 μM, day 8
  Concentration significantly augmenting green fluorescence intensity (Aβ-GFP): 1.2 to 5 µM
[4]; Homo sapiens, ∆K280 tauRD-DsRed SH-SY5Y cells, read-out: Extrapolated EC50 in inhibiting ∆K280 tauRD aggregation (DsRed fluorescence)
  EC50: 10 µM
[4]; day 8
  Concentration significantly elevating DsRed fluorescence intensity: 5 to 10 µM
[5]
  Concentration effectively decreasing ROS levels caused by Aβ overexpression: 1.2 to 5 µM
[6]
  EC50: 14 µM
[7]
  ROS level elevated by ∆K280 tauRD overexpression: effectively reduced
[8]
  Aβ-GFP RNA levels: did not significantly modify
